In brackets after ≈: the same amount, converted by molar mass. Where two headings read alike, the source gives them in different places. Blank lines part the entries; values can stand above or below the molecule they belong to.
What was measured:
E. coli DH5α pBC-VIM-2 = experiment: Susceptibility test (microdilution), transformant; format: cell-based
Method: (§1) Susceptibility testing, based on the microdilution method, was performed according to the guidelines of the Clinical and Laboratory Standards Institute ([36]).

IMP-1 [1] = target: T1, IMP-1 (Serratia marcescens, UniProt P52699); format: biochemical; conditions: IMP-1 with agent (5 mM stock), dialysis
T1 construct: made in house
T1 sequence (P52699 19-246, looked up, species assumed): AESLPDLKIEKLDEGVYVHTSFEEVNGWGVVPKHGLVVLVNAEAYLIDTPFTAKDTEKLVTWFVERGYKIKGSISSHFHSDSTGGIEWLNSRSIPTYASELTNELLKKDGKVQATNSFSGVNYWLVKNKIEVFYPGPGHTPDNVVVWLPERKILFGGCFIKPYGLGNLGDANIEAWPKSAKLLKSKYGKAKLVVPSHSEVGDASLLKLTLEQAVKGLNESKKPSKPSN
Method: A total of 5 µL of IMP-1 (100 µM) and 2 µL of EDTA (5 mM) or HHIA (5 mM) were mixed in 100 µL of 20 mM HEPES buffer (pH 7.5) pretreated with Chelex 100 resin (Bio-Rad) and incubated on ice for 30 min. The samples were dialyzed against ultrapure water at 4°C for 6 h using Slide-A-Lyzer Dialysis Cassettes (cutoff, 3.5 K) (Thermo Fisher Scientific) and treated with proteinase K (FUJIFILM Wako Pure Chemical Corporation) at 37°C for 1 h. The zinc concentration in the samples was determined using a Zinc Assay Kit (MG Metallogenics).

IMP-1 [2] = target: T1, IMP-1; format: binding; conditions: DSF; control protein 52.5°C
Method: The DSF assay was performed using the Protein Thermal Shift Dye Kit (Thermo Fisher Scientific) and StepOnePlus Real-Time PCR Systems (Applied Biosystems) as follows: 2 µL of IMP-1 enzyme (100 µM), 1 µL of EDTA or HHIA solution (5 mM), 2.5 µL of diluted Protein Thermal Shift Dye (32×), 5 µL of Protein Thermal Shift buffer, and 9.5 µL of water were mixed in a test tube and incubated for 15 min at 4°C. Four replicates of each sample were performed. The fluorescence was monitored at 0.7°C increments from 4°C to 99°C. The relative fluorescence units were fitted with the Boltzmann equation using the TSA-CRAFT software to determine the melting point (Tm) ([47]).

E. coli NUBL-22 (IMP-6) = experiment: Susceptibility test, clinical isolate; format: cell-based; conditions: Escherichia coli
Method: as §1

E. coli 426 (IMP-1) = experiment: Susceptibility test, clinical isolate; format: cell-based; conditions: Escherichia coli
Method: as §1

[3] = system: E. cloacae NUBL-5 (IMP-1); experiment: Susceptibility test, clinical isolate; format: cell-based; conditions: Enterobacter cloacae
Method: as §1

[4] = system: K. oxytoca NUBL-827 (IMP-1); experiment: Susceptibility test, clinical isolate; format: cell-based; conditions: Klebsiella oxytoca
Method: as §1

E. coli NUBL-24 (IMP-1) = experiment: Susceptibility test, clinical isolate; format: cell-based; conditions: E. coli NUBL-24 (IMP-1); for MIC: Escherichia coli
Method: as §1

[5] = system: K. pneumoniae AR0076 (VIM-1); experiment: Susceptibility test, clinical isolate; format: cell-based; conditions: Klebsiella pneumoniae
Method: as §1

[6] = system: K. pneumoniae MS5674 (NDM-1/VIM-1); experiment: Susceptibility test, clinical isolate; format: cell-based; conditions: Klebsiella pneumoniae
Method: as §1

[7] = system: K. pneumoniae NUBL-23 (IMP-6); experiment: Susceptibility test, clinical isolate; format: cell-based; conditions: Klebsiella pneumoniae
Method: as §1

[8] = system: K. pneumoniae NUBL-8 (IMP-1); experiment: Susceptibility test, clinical isolate; format: cell-based; conditions: Klebsiella pneumoniae
Method: as §1

[9] = system: K. pneumoniae AR0034 (IMP-4); experiment: Susceptibility test, clinical isolate; format: cell-based; conditions: Klebsiella pneumoniae, K. pneumoniae AR0034 (IMP-4)
Method: as §1

E. coli 465 (IMP-1) = experiment: Susceptibility test, clinical isolate; format: cell-based; conditions: Escherichia coli
Method: as §1

[10] = system: P. penneri E11-M475 (IMP-1); experiment: Susceptibility test, clinical isolate; format: cell-based; conditions: Proteus penneri
Method: as §1

E. coli DH5α pBC-NDM-1 = experiment: Susceptibility test (microdilution), transformant; format: cell-based; conditions: E. coli DH5α pBC-NDM-1
Method: as §1

E. coli DH5α pCL-SMB-1 = experiment: Susceptibility test (microdilution), transformant; format: cell-based; conditions: E. coli DH5α pCL-SMB-1
Method: as §1

E. coli DH5α pBC-IMP-1 = experiment: Susceptibility test (microdilution), transformant; format: cell-based
Method: as §1

IMP-1 [11] = target: T1, IMP-1; experiment: In vitro inhibition assay (IPM hydrolysis); format: biochemical; conditions: read-out: IC50 for IMP-1
Method: MBLs were incubated with HHIAs in 20 mM HEPES buffer (pH 7.5) containing 200 mM NaCl and 50 µg/mL BSA at 30°C for 5 min. IPM was added at a concentration of 100 µM, and the rate of IPM hydrolysis was monitored at 297 nm. The initial velocity (v0) rates were plotted against HHIA’s logarithmic concentrations, and the data were fitted to a four-parameter variable slope to obtain the half-maximal inhibitor concentration (IC50) values using GraphPad Prism 9 software (GraphPad Software). The inhibition constant (Ki) was determined as follows: v0 was measured after varying the concentrations of IPM and HHIAs, and inverse v0 (1/v0) was plotted against the inverse IPM concentration [1/(IPM)]. Lineweaver–Burk plots were created to obtain Ki values under the competitive inhibition model using the SigmaPlot 14 suite (Hulinks).

[12] = system: IMP-1-producing E. coli NUBL-24; experiment: Time-killing assay; format: cell-based; conditions: MPM 1 µg/mL alone
Method: The initial density of IMP-1-producing E. coli NUBL-24 (MPM MIC, 8 µg/mL) was adjusted to approximately 5 × 10^6 colony-forming units (cfu)/mL. Either MPM (1 µg/mL) or 9-HHIA/10-HHIA (50 µg/mL) alone or a combination of the two was added to the bacterial solution, and then incubation was performed at 37°C. LB broth containing bacteria alone was used as a control. At 0, 2, 4, 8, and 12 h after adding the agents, an aliquot of the bacterial culture was removed, diluted, and spotted on LB agar plates to count the viable bacterial cells. The detection limit was set at 333 cfu/mL.

[13] = IPM alone (Control), read-out: IPM MIC
[14] = MPM alone (Control), read-out: MPM MIC

SMILES: CC(C)(O/N=C(\C(=O)N[C@@H]1C(=O)N2C(C(=O)[O-])=C(C[n+]3ccccc3)CS[C@H]12)c1csc(N)n1)C(=O)O [CAZ, ceftazidime]
- MIC (E. coli DH5α pBC-VIM-2; Escherichia coli, read-out: CAZ MIC, CAZ alone (Control)): 4 to 8 µg/mL (≈ 7.32 to 14.6 µM)

- Zinc ions in IMP-1 after treatment (IMP-1 [1]): completely lost
- Melting temperature (Tm) of treated IMP-1 (IMP-1 [2]): 43.4 °C
SMILES: O=C(O)CN(CCN(CC(=O)O)CC(=O)O)CC(=O)O [EDTA, reference compound]

- MIC (E. coli NUBL-22 (IMP-6); [13]): 2 µg/mL (≈ 6.68 µM)
- MIC (E. coli 426 (IMP-1); [13]): 8 µg/mL (≈ 26.7 µM)
- MIC [3, 13]: 8 µg/mL (≈ 26.7 µM)
- MIC [4, 13]: 16 µg/mL (≈ 53.4 µM)
- MIC (E. coli NUBL-24 (IMP-1); [13]): 8 µg/mL (≈ 26.7 µM)
- MIC [5, 13]: 32 µg/mL (≈ 107 µM)
- MIC [6, 13]: 32 µg/mL (≈ 107 µM)
- MIC [7, 13]: 1 µg/mL (≈ 3.34 µM)
- MIC [8, 13]: 4 µg/mL (≈ 13.4 µM)
- MIC [9, 13]: 4 µg/mL (≈ 13.4 µM)
- MIC (E. coli 465 (IMP-1); [13]): 32 µg/mL (≈ 107 µM)
- MIC [10, 13]: > 64 µg/mL
SMILES: C[C@@H](O)[C@H]1C(=O)N2C(C(=O)O)=C(SCCN=CN)C[C@H]12 [IPM, imipenem, reference compound]

SMILES: C=C(CC(=O)O)C(=O)O [Itaconic acid, itaconic acid]
- MPM MIC (E. coli DH5α pBC-NDM-1; +agent 6.25 μg/mL): >64 µg/mL
- MPM MIC (E. coli DH5α pBC-NDM-1; +agent 25 μg/mL): >64 µg/mL
- MPM MIC (E. coli DH5α pBC-NDM-1; +agent 100 μg/mL): >64 µg/mL
- MPM MIC (E. coli DH5α pCL-SMB-1; +agent 6.25 μg/mL): 32 µg/mL
- MPM MIC (E. coli DH5α pCL-SMB-1; +agent 25 μg/mL): 32 µg/mL
- MPM MIC (E. coli DH5α pCL-SMB-1; +agent 100 μg/mL): 32 µg/mL
- MPM MIC (E. coli DH5α pBC-IMP-1; +agent 6.25 μg/mL): 1 µg/mL
- MPM MIC (E. coli DH5α pBC-IMP-1; +agent 25 μg/mL): 1 µg/mL
- MPM MIC (E. coli DH5α pBC-IMP-1; +agent 100 μg/mL): 1 µg/mL
- CAZ MIC (E. coli DH5α pBC-VIM-2; +agent 6.25 μg/mL): 8 µg/mL
- CAZ MIC (E. coli DH5α pBC-VIM-2; +agent 25 μg/mL): 8 µg/mL
- CAZ MIC (E. coli DH5α pBC-VIM-2; +agent 100 μg/mL): 8 µg/mL
- IC50 (IMP-1 [11]): > 1 mM

SMILES: C[C@@H](O)[C@H]1C(=O)N2C(C(=O)O)=C(S[C@@H]3CN[C@H](C(=O)N(C)C)C3)[C@H](C)[C@H]12 [MPM, meropenem, reference compound]
- MIC (E. coli NUBL-22 (IMP-6); [14]): 32 µg/mL (≈ 83.4 µM)
- MIC (E. coli 426 (IMP-1); [14]): 16 µg/mL (≈ 41.7 µM)
- MIC [3, 14]: 16 µg/mL (≈ 41.7 µM)
- MIC [4, 14]: 32 µg/mL (≈ 83.4 µM)
- MIC (E. coli NUBL-24 (IMP-1); [14]): 8 µg/mL (≈ 20.9 µM)
- MPM MIC (E. coli NUBL-24 (IMP-1); MPM alone (Control)): 8 µg/mL
- MIC [5, 14]: 32 µg/mL (≈ 83.4 µM)
- MIC [6, 14]: > 64 µg/mL
- MIC [7, 14]: 64 µg/mL (≈ 167 µM)
- MIC [8, 14]: 16 µg/mL (≈ 41.7 µM)
- MIC [9, 14]: 8 µg/mL (≈ 20.9 µM)
- MIC (E. coli 465 (IMP-1); [14]): 32 µg/mL (≈ 83.4 µM)
- MIC [10, 14]: > 64 µg/mL
- MIC (E. coli DH5α pBC-IMP-1; Escherichia coli, read-out: MPM MIC, MPM alone (Control)): 1 µg/mL (≈ 2.61 µM)
- MPM MIC (E. coli DH5α pBC-IMP-1; MPM alone (Control)): 1 µg/mL
- Time-kill: MPM alone [12]: regrew close to the control level at 12 h

Reference: publication PMC10913484, “Hydroxyhexylitaconic acids as potent IMP-type metallo-β-lactamase inhibitors for controlling carbapenem resistance in Enterobacterales” (Microbiology Spectrum, 2024)
